Measurements reported in patent US20240423995A1, “C-KIT INHIBITORS AND USES FOR TREATING AND PREVENTING INFLAMMATORY CONDITIONS” (GEORGETOWN UNIVERSITY, priority 2023, published 2024).

Key:
KIT autoinhibited = molecular target: T1, KIT autoinhibited (Homo sapiens, UniProt P10721); experiment: KINOMEscan competition binding screen, KIT autoinhibited; details: for remaining binding at 10 µM: read-out: % Ctrl @ 10 μM
T1 construct: purchased Eurofins DiscoverX Corporation
Method: (§1) The KINOMEscan™ screening platform (Eurofins DiscoverX Corporation, San Diego, USA) was performed using an active site-directed competition binding assay to quantitatively measure interactions between BK40143, BK40197, BK40195, and BK40196 and more than 450 human kinases and disease relevant mutant variants. […] Screening “hits” were identified by measuring the amount of kinase captured in test (BK40143, BK40197, BK40195, and BK40196) versus control samples by using a quantitative and ultra-sensitive qPCR method that detects the associated DNA label. BK40143, BK40197, BK40195, and BK40196 were screened at 10 μM concentration, and results for primary screen binding interactions were reported as ‘% Ctrl’ (POC), where lower numbers indicate stronger hits and calculated as follows:
(§2) [formula] • test compound=BK40143 or BK40197 or BK40195 or BK40196 • negative control=DMSO (100% Ctrl) • positive control=control compound (0% Ctrl)
(§3) Based on screening data of profiled compounds, a proportional relationship between primary screening results and corresponding compound/target affinities can be described as binding constants (Kd values) for the indicated ranges of percent of control (PoC) values, with tighter binding (higher affinity) interactions associated with lower PoC values, and weaker binding (lower affinity) associated with higher PoC values. Briefly, kinase-tagged T7 phage strains were grown in parallel in 24-well blocks in an E. coli host derived from the BL21 strain. E. coli were grown to log-phase and infected with T7 phage from a frozen stock (multiplicity of infection=0.4) and incubated with shaking at 32° C. until lysis (90-150 minutes). The lysates were centrifuged (6,000×g) and filtered ([…]) to remove cell debris. The remaining kinases were produced in HEK-293 cells and subsequently tagged with DNA for qPCR detection. Streptavidin-coated magnetic beads were treated with biotinylated small molecule ligands for 30 minutes at room temperature to generate affinity resins for kinase assays. The liganded beads were blocked with excess biotin and washed with blocking buffer (SeaBlock (Pierce), 1% BSA, 0.05% Tween 20, 1 mM DTT) to remove unbound ligand and to reduce non-specific phage binding. Binding reactions were assembled by combining kinases, liganded affinity beads, and test compounds in 1× binding buffer (20% SeaBlock, 0.17×PBS, 0.05% Tween 20, 6 mM DTT). Test compounds were prepared as 100× stocks in 100% DMSO and directly diluted into the assay. All reactions were performed in polypropylene 384-well plates in a final volume of 0.02 ml. The assay plates were incubated at room temperature with shaking for 1 hour and the affinity beads were washed with wash buffer (1×PBS, 0.05% Tween 20). The beads were then re-suspended in elution buffer (1×PBS, 0.05% Tween 20, 0.5 μM non-biotinylated affinity ligand) and incubated at room temperature with shaking for 30 minutes. The kinase concentration in the eluates was measured by qPCR.

KIT (D816V) = molecular target: T2, KIT (D816V) (Homo sapiens, UniProt P10721, D816V); experiment: KINOMEscan competition binding screen, KIT (D816V); details: for remaining binding at 10 µM: read-out: % Ctrl @ 10 μM
T2 construct: purchased Eurofins DiscoverX Corporation
T2 sequence (P10721 26-976 D816V): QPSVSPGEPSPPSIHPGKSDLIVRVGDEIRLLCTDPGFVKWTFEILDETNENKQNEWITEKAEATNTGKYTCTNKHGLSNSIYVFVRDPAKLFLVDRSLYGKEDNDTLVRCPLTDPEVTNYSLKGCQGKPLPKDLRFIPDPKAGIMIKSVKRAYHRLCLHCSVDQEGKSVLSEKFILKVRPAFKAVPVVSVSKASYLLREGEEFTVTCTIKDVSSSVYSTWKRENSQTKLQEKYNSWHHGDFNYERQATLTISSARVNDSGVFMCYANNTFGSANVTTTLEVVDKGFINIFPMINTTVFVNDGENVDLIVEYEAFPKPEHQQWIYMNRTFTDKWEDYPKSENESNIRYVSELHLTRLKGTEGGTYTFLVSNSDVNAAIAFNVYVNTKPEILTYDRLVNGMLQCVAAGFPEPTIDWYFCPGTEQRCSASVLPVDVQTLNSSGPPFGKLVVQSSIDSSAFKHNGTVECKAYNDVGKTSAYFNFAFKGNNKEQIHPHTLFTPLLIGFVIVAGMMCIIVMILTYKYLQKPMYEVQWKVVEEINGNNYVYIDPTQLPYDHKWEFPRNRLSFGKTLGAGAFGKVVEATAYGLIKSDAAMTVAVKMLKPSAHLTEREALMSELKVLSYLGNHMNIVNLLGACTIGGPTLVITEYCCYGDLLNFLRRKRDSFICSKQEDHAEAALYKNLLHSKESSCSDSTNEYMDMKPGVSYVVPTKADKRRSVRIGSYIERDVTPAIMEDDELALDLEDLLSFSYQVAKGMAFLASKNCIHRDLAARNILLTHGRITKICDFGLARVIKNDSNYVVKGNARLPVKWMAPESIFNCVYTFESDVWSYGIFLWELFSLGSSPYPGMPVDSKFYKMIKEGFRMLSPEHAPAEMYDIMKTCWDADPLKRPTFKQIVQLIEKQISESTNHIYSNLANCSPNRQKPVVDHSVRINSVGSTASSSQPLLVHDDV
Method: as §1, §2, §3

KIT (L576P) = molecular target: T3, KIT (L576P) (Homo sapiens, UniProt P10721, L576P); experiment: KINOMEscan competition binding screen, KIT (L576P); details: for remaining binding at 10 µM: read-out: % Ctrl @ 10 μM
T3 construct: purchased Eurofins DiscoverX Corporation
T3 sequence (P10721 26-976 L576P): as the sequence (P10721 26-976 D816V) above, with L551P, V791D counted along it
Method: as §1, §2, §3

KIT (V559D) = molecular target: T4, KIT (V559D) (Homo sapiens, UniProt P10721, V559D); experiment: KINOMEscan competition binding screen, KIT (V559D); details: for remaining binding at 10 µM: read-out: % Ctrl @ 10 μM
T4 construct: purchased Eurofins DiscoverX Corporation
T4 sequence (P10721 26-976 V559D): as the sequence (P10721 26-976 D816V) above, with V534D, V791D counted along it
Method: as §1, §2, §3

FYN = molecular target: T5, FYN (Homo sapiens, UniProt P06241); experiment: KINOMEscan competition binding screen, FYN; details: for remaining binding at 10 µM: read-out: % Ctrl @ 10 μM
T5 construct: purchased Eurofins DiscoverX Corporation
T5 sequence (P06241 whole entry): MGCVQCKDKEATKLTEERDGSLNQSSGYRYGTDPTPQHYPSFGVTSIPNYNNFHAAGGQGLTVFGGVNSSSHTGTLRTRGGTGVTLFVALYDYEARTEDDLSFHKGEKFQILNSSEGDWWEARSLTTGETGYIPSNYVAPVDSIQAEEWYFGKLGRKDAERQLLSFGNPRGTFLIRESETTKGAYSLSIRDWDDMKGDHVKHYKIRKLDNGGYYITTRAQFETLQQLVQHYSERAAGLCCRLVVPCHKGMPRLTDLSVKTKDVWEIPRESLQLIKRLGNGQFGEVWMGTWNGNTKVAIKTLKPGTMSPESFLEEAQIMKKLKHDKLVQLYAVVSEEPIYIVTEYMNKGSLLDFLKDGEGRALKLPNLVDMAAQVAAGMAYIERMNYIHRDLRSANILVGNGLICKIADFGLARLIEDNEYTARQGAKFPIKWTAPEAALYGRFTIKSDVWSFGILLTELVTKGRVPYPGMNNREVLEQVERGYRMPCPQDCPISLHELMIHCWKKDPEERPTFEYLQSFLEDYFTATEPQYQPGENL
Method: as §1, §2, §3

DDR1 = molecular target: T6, DDR1 (Homo sapiens, UniProt Q08345); experiment: KINASESEEKER competition binding assay, DDR1; details: minimum 8-point curve, duplicate
T6 construct: purchased Luceome Biotechnologies, LLC
T6 sequence (Q08345 19-913): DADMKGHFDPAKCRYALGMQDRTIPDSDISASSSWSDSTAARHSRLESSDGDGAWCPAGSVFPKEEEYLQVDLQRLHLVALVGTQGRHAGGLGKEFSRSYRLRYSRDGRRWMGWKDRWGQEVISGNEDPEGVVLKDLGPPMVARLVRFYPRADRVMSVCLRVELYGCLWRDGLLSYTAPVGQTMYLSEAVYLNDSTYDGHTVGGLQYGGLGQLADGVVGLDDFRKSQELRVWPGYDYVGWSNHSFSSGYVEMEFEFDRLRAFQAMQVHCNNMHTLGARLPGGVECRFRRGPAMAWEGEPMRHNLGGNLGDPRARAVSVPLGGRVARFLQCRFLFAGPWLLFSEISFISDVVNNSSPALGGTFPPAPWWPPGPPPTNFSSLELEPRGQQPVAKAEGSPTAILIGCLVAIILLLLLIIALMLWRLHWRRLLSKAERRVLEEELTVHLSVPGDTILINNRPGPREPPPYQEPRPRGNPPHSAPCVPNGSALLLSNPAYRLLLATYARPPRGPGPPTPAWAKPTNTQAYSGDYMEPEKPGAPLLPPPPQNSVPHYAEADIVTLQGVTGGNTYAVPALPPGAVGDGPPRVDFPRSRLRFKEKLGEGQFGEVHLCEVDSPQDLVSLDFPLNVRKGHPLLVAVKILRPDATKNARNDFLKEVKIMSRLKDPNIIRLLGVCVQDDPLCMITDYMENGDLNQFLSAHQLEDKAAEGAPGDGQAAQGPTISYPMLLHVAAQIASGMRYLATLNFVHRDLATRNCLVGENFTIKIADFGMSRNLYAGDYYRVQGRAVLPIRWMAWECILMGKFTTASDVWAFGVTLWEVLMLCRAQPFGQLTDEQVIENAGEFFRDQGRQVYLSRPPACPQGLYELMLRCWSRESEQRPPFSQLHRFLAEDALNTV
Method: Kinase assays were performed using KINASESEEKER™ (Luceome Biotechnologies, LLC; Tucson, AZ). KINASESEEKER™ is a homogeneous competition binding assay in which the displacement of an active site-dependent probe by an inhibitor is measured by a change in luminescence signal. Luminescence readout translates into a highly sensitive and robust assay with low background and minimal interference from test compounds. See J. Am. Chem. Soc., 2010, 132, 11727-11735.
Stock solutions of compounds were serially diluted in DMSO to make assay stocks. Prior to initiating IC50 determination, the test compounds were evaluated for false positives against split-luciferase. The compounds were screened against kinases at a minimum of 8 different concentrations in duplicate. For kinase assays, a 24 μL aliquot of lysate containing Cfluc-kinase and Fos-Nfluc was incubated for 2 hours with either 1 μL of DMSO (for no-inhibitor control) or compound solution in DMSO in presence of a kinase specific probe. 80 μL of luciferin assay reagent was added to each solution and luminescence was immediately measured on a luminometer.
The % Inhibition and % Activity Remaining was calculated using the following equation: […]
The % Activity Remaining was plotted against compound concentration and the IC50 was determined for each compound using a minimum 8-point curve.

mast cell degranulation = experiment: Compound 48/80-induced mast cell degranulation in wild type C57BL/6 mice, toluidine blue blood smear; assay type: in vivo; details: for mast cell degranulation 0.5-1.5 hours post-injection of C48/40: approximately two hours before I.P. injection of compound 48/80, toluidine blue blood smear; for effect on mast cell degranulation induced by C48/40: single I.P. injection two hours prior to compound 48/80 treatment, blood smear
Method: Wild type C57BL/6J mice were treated with C48/40 to induce mast cell activation. Compound 48/80 is a polymer produced by the condensation of N-methyl-p-methoxyphenethylamine with formaldehyde. It promotes histamine release, and in biochemical research, compound 48/80 (for example, Catalog No. C2313, Sigma-Aldrich, St. Louis, MO) is used to promote mast cell degranulation. Male and female, 4-8 months old wild type C57BL/6 mice were treated only once with intraperitoneal (I.P.) injection of DMSO (control) or DMSO for 2 hours followed by C48/40 for 0.5-1.5 hours. Mice were injected with DMSO approximately 2 hours prior to injection (IP) with 50 μg C48/40 to show degranulation of mast cells 0.5-1.5 hours post-injection of C48/40. Animals were also injected with 20 mg/kg BK40197, BK40195 or BK40196; or 10 mg/kg BK40143 approximately two hours before I.P. injection of C48/40 to show the effects of the drugs on mast cell degranulation approximately 0.5-1.5 hours post-injection of C48/40. Drugs and C48/40 were injected on the same site. n=6 per treatment. Blood was collected and a smear was prepared and stained with Toluidine blue to show mast cell morphology.

T1 sequence (P10721 544-976 limits assumed): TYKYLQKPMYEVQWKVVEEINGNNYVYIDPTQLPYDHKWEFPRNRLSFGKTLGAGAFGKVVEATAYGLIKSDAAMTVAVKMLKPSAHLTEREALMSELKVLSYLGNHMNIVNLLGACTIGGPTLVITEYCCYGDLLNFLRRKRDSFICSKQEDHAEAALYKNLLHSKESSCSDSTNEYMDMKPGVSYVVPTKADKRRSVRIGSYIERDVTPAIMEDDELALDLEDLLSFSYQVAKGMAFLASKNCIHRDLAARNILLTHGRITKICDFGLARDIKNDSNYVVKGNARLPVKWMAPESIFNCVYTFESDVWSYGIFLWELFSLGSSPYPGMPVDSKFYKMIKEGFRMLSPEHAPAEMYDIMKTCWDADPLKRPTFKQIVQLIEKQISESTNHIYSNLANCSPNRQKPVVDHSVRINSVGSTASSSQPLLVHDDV

Cc1cccc(-c2cc3nccc(Nc4ccccc4)c3s2)c1 [BK40143]
inhibition at 10 µM (KIT autoinhibited): 31%
remaining binding at 10 µM (KIT autoinhibited): 69%
inhibition at 10 µM (KIT (D816V)): 65%
remaining binding at 10 µM (KIT (D816V)): 35%
inhibition at 10 µM (KIT (L576P)): 96.5%
remaining binding at 10 µM (KIT (L576P)): 3.5%
inhibition at 10 µM (KIT (V559D)): 99.8%
remaining binding at 10 µM (KIT (V559D)): 0.25%
inhibition at 10 µM (FYN): 90%
remaining binding at 10 µM (FYN): 10%
IC50 (DDR1): 7050 ± 1050 nM
mast cell degranulation 0.5-1.5 hours post-injection of C48/40 (mast cell degranulation; 10 mg/kg): absence of mast cell degranulation
effect on mast cell degranulation induced by C48/40 (mast cell degranulation): significantly prevented mast cell degranulation

COc1cccc(Nc2ccnc3cc(-c4cccc(C)c4)sc23)c1 [BK40195]
inhibition at 10 µM (KIT autoinhibited): 78%
remaining binding at 10 µM (KIT autoinhibited): 22%
inhibition at 10 µM (KIT (D816V)): 98.3%
remaining binding at 10 µM (KIT (D816V)): 1.7%
inhibition at 10 µM (KIT (L576P)): 91.9%
remaining binding at 10 µM (KIT (L576P)): 8.1%
inhibition at 10 µM (KIT (V559D)): 99.8%
remaining binding at 10 µM (KIT (V559D)): 0.2%
inhibition at 10 µM (FYN): 97.6%
remaining binding at 10 µM (FYN): 2.4%
IC50 (DDR1): 2200 ± 260 nM
mast cell degranulation 0.5-1.5 hours post-injection of C48/40 (mast cell degranulation; 20 mg/kg): absence of mast cell degranulation
effect on mast cell degranulation induced by C48/40 (mast cell degranulation): significantly prevented mast cell degranulation

Cc1cccc(-c2cc3nccc(Nc4cccc(O)c4)c3s2)c1 [BK40196]
inhibition at 10 µM (KIT autoinhibited): 44%
remaining binding at 10 µM (KIT autoinhibited): 56%
inhibition at 10 µM (KIT (D816V)): 99.8%
remaining binding at 10 µM (KIT (D816V)): 0.2%
inhibition at 10 µM (KIT (L576P)): 99.2%
remaining binding at 10 µM (KIT (L576P)): 0.8%
inhibition at 10 µM (KIT (V559D)): 100%
remaining binding at 10 µM (KIT (V559D)): 0%
inhibition at 10 µM (FYN): 100%
remaining binding at 10 µM (FYN): 0%
IC50 (DDR1): 1070 ± 130 nM
mast cell degranulation 0.5-1.5 hours post-injection of C48/40 (mast cell degranulation; 10 mg/kg): absence of mast cell degranulation
effect on mast cell degranulation induced by C48/40 (mast cell degranulation): significantly prevented mast cell degranulation

Cc1cccc(-c2cc3nccc(N4CCOCC4)c3s2)c1 [BK40197]
inhibition at 10 µM (KIT autoinhibited): 48%
remaining binding at 10 µM (KIT autoinhibited): 52%
inhibition at 10 µM (KIT (D816V)): 33%
remaining binding at 10 µM (KIT (D816V)): 67%
inhibition at 10 µM (KIT (L576P)): 98.2%
remaining binding at 10 µM (KIT (L576P)): 1.8%
inhibition at 10 µM (KIT (V559D)): 99.7%
remaining binding at 10 µM (KIT (V559D)): 0.35%
inhibition at 10 µM (FYN): 44%
remaining binding at 10 µM (FYN): 56%
mast cell degranulation 0.5-1.5 hours post-injection of C48/40 (mast cell degranulation; 20 mg/kg): absence of mast cell degranulation
effect on mast cell degranulation induced by C48/40 (mast cell degranulation): significantly prevented mast cell degranulation
